Test results: US5556744A, “Methods and compositions for diagnosing and treating certain HIV infected patients” (The Trustees of the University of Pennsylvania, priority 1994, dated 1996)

Columns and labels:
[1] = system: maternal HIV+ sera (antibodies); experiment: RIA / ELISA binding of maternal HIV+ sera to gp120 and gp41 peptides (Example 3); set-up: species or system human
Method in brief: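 Peptides were coated at 10 μg/ml in carbonate buffer pH 9.6 and blocked with 1% BSA. Sera at 1:50 and 1:500 were incubated overnight at 4°C and detected with ¹²⁵I anti-human IgG (RIA) or HRP/TMB at OD450 (ELISA). Specific binding was taken as peptide minus no-peptide wells, scored as a ratio to normal human serum.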

[2] = system: maternal sera (antibodies); experiment: ELISA peptide-binding of maternal sera (Example 6); set-up: species or system human; settings: for Number of Non-Transmitters which bound to peptide / Percent of Non-Transmitters which bound to peptide: N = 12; for Number of Transmitters which bound to peptide / Percent of Transmitters which bound to peptide: N = 4
Method in brief: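 Third-trimester maternal sera, from HIV-1 transmitting and non-transmitting mothers, were tested by ELISA against ~16-residue peptides spanning HIV-1 external and transmembrane glycoproteins. Each serum was run with at least 40 peptides, and values are the percentage of sera binding each peptide.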

[3] = Serum No. 1, Non-Transmission Group
[4] = Serum No. 2, Non-Transmission Group
[5] = Serum No. 3, Non-Transmission Group
[6] = Serum No. 4, Transmission Group
[7] = Serum No. 5, Transmission Group
[8] = Serum No. 6, Non-Transmission Group
[9] = Serum No. 7, Non-Transmission Group
[10] = Serum No. 8, Non-Transmission Group
[11] = Serum No. 9, Non-Transmission Group
[12] = Serum No. 10, Transmission Group
[13] = Serum No. 11, Non-Transmission Group
[14] = Serum No. 12, Non-Transmission Group
[15] = Serum No. 13, Transmission Group
[16] = Serum No. 14, Transmission Group
[17] = Serum No. 15, Transmission Group
[18] = Serum No. 16, Non-Transmission Group
[19] = Serum No. 17, Non-Transmission Group
[20] = Serum No. 18, Non-Transmission Group
[21] = Serum No. 19, Transmission Group
[22] = Serum No. 20, Non-Transmission Group

| Sequence | Binding of maternal HIV+ serum to peptide (sera/NHS ratio) [1, 3] | Binding of maternal HIV+ serum to peptide (sera/NHS ratio) [1, 4] | Binding of maternal HIV+ serum to peptide (sera/NHS ratio) [1, 5] | Binding of maternal HIV+ serum to peptide (sera/NHS ratio) [1, 6] | Binding of maternal HIV+ serum to peptide (sera/NHS ratio) [1, 7] | Binding of maternal HIV+ serum to peptide (sera/NHS ratio) [1, 8] | Binding of maternal HIV+ serum to peptide (sera/NHS ratio) [1, 9] | Binding of maternal HIV+ serum to peptide (sera/NHS ratio) [1, 10] | Binding of maternal HIV+ serum to peptide (sera/NHS ratio) [1, 11] | Binding of maternal HIV+ serum to peptide (sera/NHS ratio) [1, 12] | Binding of maternal HIV+ serum to peptide (sera/NHS ratio) [1, 13] | Binding of maternal HIV+ serum to peptide (sera/NHS ratio) [1, 14] | Binding of maternal HIV+ serum to peptide (sera/NHS ratio) [1, 15] | Binding of maternal HIV+ serum to peptide (sera/NHS ratio) [1, 16] | Binding of maternal HIV+ serum to peptide (sera/NHS ratio) [1, 17] | Binding of maternal HIV+ serum to peptide (sera/NHS ratio) [1, 18] | Binding of maternal HIV+ serum to peptide (sera/NHS ratio) [1, 19] | Binding of maternal HIV+ serum to peptide (sera/NHS ratio) [1, 20] | Binding of maternal HIV+ serum to peptide (sera/NHS ratio) [1, 21] | Binding of maternal HIV+ serum to peptide (sera/NHS ratio) [1, 22] | other results |
| --- | --- | --- | --- | --- | --- | --- | --- | --- | --- | --- | --- | --- | --- | --- | --- | --- | --- | --- | --- | --- | --- |
| WGIKQLQARILAVER [Peptide 120] | - (specific OD450 or cpm of sera sample binding to peptide divided by the specific OD450 or cpm of NHS sample binding to peptide, which value is less than 2) | - (specific OD450 or cpm of sera sample binding to peptide divided by the specific OD450 or cpm of NHS sample binding to peptide, which value is less than 2) | - (specific OD450 or cpm of sera sample binding to peptide divided by the specific OD450 or cpm of NHS sample binding to peptide, which value is less than 2) | - (specific OD450 or cpm of sera sample binding to peptide divided by the specific OD450 or cpm of NHS sample binding to peptide, which value is less than 2) | - (specific OD450 or cpm of sera sample binding to peptide divided by the specific OD450 or cpm of NHS sample binding to peptide, which value is less than 2) | - (specific OD450 or cpm of sera sample binding to peptide divided by the specific OD450 or cpm of NHS sample binding to peptide, which value is less than 2) | - (specific OD450 or cpm of sera sample binding to peptide divided by the specific OD450 or cpm of NHS sample binding to peptide, which value is less than 2) | - (specific OD450 or cpm of sera sample binding to peptide divided by the specific OD450 or cpm of NHS sample binding to peptide, which value is less than 2) | - (specific OD450 or cpm of sera sample binding to peptide divided by the specific OD450 or cpm of NHS sample binding to peptide, which value is less than 2) | - (specific OD450 or cpm of sera sample binding to peptide divided by the specific OD450 or cpm of NHS sample binding to peptide, which value is less than 2) | - (specific OD450 or cpm of sera sample binding to peptide divided by the specific OD450 or cpm of NHS sample binding to peptide, which value is less than 2) | - (specific OD450 or cpm of sera sample binding to peptide divided by the specific OD450 or cpm of NHS sample binding to peptide, which value is less than 2) | - (specific OD450 or cpm of sera sample binding to peptide divided by the specific OD450 or cpm of NHS sample binding to peptide, which value is less than 2) | - (specific OD450 or cpm of sera sample binding to peptide divided by the specific OD450 or cpm of NHS sample binding to peptide, which value is less than 2) | - (specific OD450 or cpm of sera sample binding to peptide divided by the specific OD450 or cpm of NHS sample binding to peptide, which value is less than 2) | - (specific OD450 or cpm of sera sample binding to peptide divided by the specific OD450 or cpm of NHS sample binding to peptide, which value is less than 2) | - (specific OD450 or cpm of sera sample binding to peptide divided by the specific OD450 or cpm of NHS sample binding to peptide, which value is less than 2) | - (specific OD450 or cpm of sera sample binding to peptide divided by the specific OD450 or cpm of NHS sample binding to peptide, which value is less than 2) | - (specific OD450 or cpm of sera sample binding to peptide divided by the specific OD450 or cpm of NHS sample binding to peptide, which value is less than 2) | - (specific OD450 or cpm of sera sample binding to peptide divided by the specific OD450 or cpm of NHS sample binding to peptide, which value is less than 2) | Number of Non-Transmitters which bound to peptide [2]: 0; Percent of Non-Transmitters which bound to peptide [2]: 0%; Number of Transmitters which bound to peptide [2]: 0; Percent of Transmitters which bound to peptide [2]: 0% |
| RKSIGIQRGPGR [Peptide 1029-33] | + (which value is between 2 to 3) | ++ (which value is greater than 3) | + (which value is between 2 to 3) | - (specific OD450 or cpm of sera sample binding to peptide divided by the specific OD450 or cpm of NHS sample binding to peptide, which value is less than 2) | + (which value is between 2 to 3) | - (specific OD450 or cpm of sera sample binding to peptide divided by the specific OD450 or cpm of NHS sample binding to peptide, which value is less than 2) | - (specific OD450 or cpm of sera sample binding to peptide divided by the specific OD450 or cpm of NHS sample binding to peptide, which value is less than 2) | - (specific OD450 or cpm of sera sample binding to peptide divided by the specific OD450 or cpm of NHS sample binding to peptide, which value is less than 2) | - (specific OD450 or cpm of sera sample binding to peptide divided by the specific OD450 or cpm of NHS sample binding to peptide, which value is less than 2) | - (specific OD450 or cpm of sera sample binding to peptide divided by the specific OD450 or cpm of NHS sample binding to peptide, which value is less than 2) | + (which value is between 2 to 3) | + (which value is between 2 to 3) | + (which value is between 2 to 3) | - (specific OD450 or cpm of sera sample binding to peptide divided by the specific OD450 or cpm of NHS sample binding to peptide, which value is less than 2) | + (which value is between 2 to 3) | - (specific OD450 or cpm of sera sample binding to peptide divided by the specific OD450 or cpm of NHS sample binding to peptide, which value is less than 2) | + (which value is between 2 to 3) | - (specific OD450 or cpm of sera sample binding to peptide divided by the specific OD450 or cpm of NHS sample binding to peptide, which value is less than 2) | - (specific OD450 or cpm of sera sample binding to peptide divided by the specific OD450 or cpm of NHS sample binding to peptide, which value is less than 2) | ++ (which value is greater than 3) | Percentage of sera samples demonstrating binding to peptide, non-transmitter ([1]; Non-transmitter group, n = 13): 53.8%; Percentage of sera samples demonstrating binding to peptide, transmitter ([1]; Transmitter / transmission group, n = 7): 42.9%; Percent of the maternal serum samples that bound to the peptide ([1]; all 20 samples): 50%; Number of Non-Transmitters which bound to peptide [2]: 0; Percent of Non-Transmitters which bound to peptide [2]: 0%; Number of Transmitters which bound to peptide [2]: 0; Percent of Transmitters which bound to peptide [2]: 0% |
